pEC50, pKd: −log10 of the molar value. Counter-ions that a name gives are not always drawn.
Tests used:
WNT signaling = assay: WNT reporter assay (TopGFP reporter); format: cell-based; conditions: Human Colonic Epithelial Cells (HCEC) with TopGFP reporter, stimulated with 10 μM CHIR99021, 24 hours
Text: KDs were obtained from Eurofins.

DYRK1A [1] = molecular target: T1, DYRK1A (Homo sapiens, UniProt Q13627); assay: biochemical
Procedure: (§1) KDs were obtained from Eurofins. The KdELECT Kinase Assay Panel enables quantitated compound binding affinity against any kinase assay. Inhibitor binding constants (Kd values) are calculated from duplicate 11-point dose-response curves. Measurements are made under optimized conditions that generate true thermodynamic Kd values which facilitate direct comparison of inhibitor affinity across kinases.

DYRK1A [2] = molecular target: T1, DYRK1A; assay: KdELECT Kinase Assay Panel (Eurofins) binding affinity; conditions: read-out: DYRK1A Kd, duplicate 11-point dose-response curves
Procedure: as §1

Row | Molecule | pEC50 (WNT signaling) | pKd (DYRK1A [1]) | pKd (DYRK1A [2])
1 | Nc1cc(-c2ccc3ncnc(-c4cnc(N5CCC6(CCOC6)CC5)c(F)c4)c3c2)ccn1 [Compound 23, 4-(4-(5-fluoro-6-(2-oxa-8-azaspiro[4.5]decan-8-yl)pyridin-3-yl)quinazolin-6-yl)pyridin-2-amine hydrochloride] | 6.00 to 7.00 | > 7.00 | –
2 | CN1[C@@H]2CC[C@H]1CN(c1ccc(-c3ncnc4ccc(-c5ccnc(N)c5)cc34)cc1F)C2 [Compound 43, 4-(4-(3-fluoro-4-((1R,5S)-8-methyl-3,8-diazabicyclo[3.2.1]octan-3-yl)phenyl)quinazolin-6-yl)pyridin-2-amine] | 6.00 to 7.00 | > 7.00 | –
3 | Nc1cc(-c2ccc3ncnc(-c4cnc(N5CCC(N6CCOCC6)CC5)c(F)c4)c3c2)ccn1 [Compound 19, 4-(4-(5-fluoro-6-(4-morpholinopiperidin-1-yl)pyridin-3-yl)quinazolin-6-yl)pyridin-2-amine] | 6.00 to 7.00 | > 7.00 | –
4 | COCCN1CCN(c2ccc(-c3ncnc4ccc(-c5ccnc(N)c5)cc34)cc2F)CC1 [Compound 54, 4-(4-(3-fluoro-4-(4-(2-methoxyethyl)piperazin-1-yl)phenyl)quinazolin-6-yl)pyridin-2-amine] | > 7.00 | > 7.00 | –
5 | CC(=O)N1CCN(c2ccc(-c3ccnc4ccc(-c5ccnc(N)c5)cc34)cc2)CC1 [Compound 38, 1-(4-(4-(6-(2-aminopyridin-4-yl)quinolin-4-yl)phenyl)piperazin-1-yl)ethan-1-one] | > 7.00 | > 7.00 | –
6 | Nc1cc(-c2ccc3ncnc(-c4ccc(N5CCNCC5)c(F)c4)c3c2)ccn1 [Compound 35, 4-(4-(3-fluoro-4-(piperazin-1-yl)phenyl)quinazolin-6-yl)pyridin-2-amine] | 6.00 to 7.00 | > 7.00 | –
7 | CC(=O)N1CC2(C1)CN(c1ccc(-c3ncnc4ccc(-c5ccnc(N)c5)cc34)cc1)C2 [Compound 44, 41-(6-(4-(6-(2-aminopyridin-4-yl)quinazolin-4-yl)phenyl)-2,6-diazaspiro[3.3]heptan-2-yl)ethan-1-one] | 6.00 to 7.00 | > 7.00 | –
8 | Nc1cc(-c2ccc3ncnc(-c4ccc(N5CCOCC5)cc4)c3c2)ccn1 [Compound 16, 4-(4-(4-morpholinophenyl)quinazolin-6-yl)pyridin-2-amine] | 6.00 to 7.00 | > 7.00 | –
9 | Fc1cc(-c2ncnc3ccc(-c4c[nH]c5ncccc45)cc23)cnc1N1CCNCC1 [Compound 27, 4-(5-fluoro-6-(piperazin-1-yl)pyridin-3-yl)-6-(1H-pyrrolo[2,3-b]pyridin-3-yl)quinazoline] | 6.00 to 7.00 | > 7.00 | –
10 | Nc1cc(-c2ccc3ncnc(-c4cnc(N5CCNCC5)c(F)c4)c3c2)ccn1 [Compound 24, 4-(4-(5-fluoro-6-(piperazin-1-yl)pyridin-3-yl)quinazolin-6-yl)pyridin-2-amine hydrochloride] | < 6.00 | > 7.00 | –
11 | CN1CCN(c2ncc(-c3ncnc4ccc(-c5ccnc(N)c5)cc34)cc2F)CC1 [Compound 9, 4-(4-(5-fluoro-6-(4-methylpiperazin-1-yl)pyridin-3-yl)quinazolin-6-yl)pyridin-2-amine] | 6.00 to 7.00 | > 7.00 | –
12 | Nc1cc(-c2ccc3ncnc(-c4ccc(N5CCN(CCO)CC5)cc4)c3c2)ccn1 [Compound 41, 2-(4-(4-(6-(2-aminopyridin-4-yl)quinazolin-4-yl)phenyl)piperazin-1-yl)ethan-1-ol] | > 7.00 | > 7.00 | –
13 | Cc1cc(-c2ccc3ncnc(-c4ccc(N5CCOCC5)c(F)c4)c3n2)ccn1 [Compound 17, 4-(2-fluoro-4-(6-(2-methylpyridin-4-yl)pyrido[3,2-d]pyrimidin-4-yl)phenyl)morpholine] | < 6.00 | > 7.00 | –
14 | Nc1cc(-c2ccc3nccc(-c4ccc(N5CCOCC5)c(F)c4)c3c2)ccn1 [Compound 32, 4-(4-(3-fluoro-4-morpholinophenyl)quinolin-6-yl)pyridin-2-amine] | 6.00 to 7.00 | > 7.00 | –
15 | CC(=O)N1C[C@@H]2C[C@H]1CN2c1ccc(-c2ncnc3ccc(-c4ccnc(N)c4)cc23)cc1F [Compound 40, 1-((1S,4S)-5-(4-(6-(2-aminopyridin-4-yl)quinazolin-4-yl)-2-fluorophenyl)-2,5-diazabicyclo[2.2.1]heptan-2-yl)ethan-1-one] | 6.00 to 7.00 | > 7.00 | –

The next lines start with the values.

Row | pEC50 (WNT signaling) | pKd (DYRK1A [1]) | pKd (DYRK1A [2]) | Molecule
16 | 6.00 to 7.00 | > 7.00 | – | CCN1CCN(c2ccc(-c3ncnc4ccc(-c5ccnc(N)c5)cc34)cc2F)CC1 [Compound 36, 4-(4-(4-(4-ethylpiperazin-1-yl)-3-fluorophenyl)quinazolin-6-yl)pyridin-2-amine]
17 | 6.00 to 7.00 | > 7.00 | – | Nc1cc(-c2ccc3ncnc(-c4ccc(N5C[C@@H]6C[C@H]5CO6)c(F)c4)c3c2)ccn1 [Compound 29, 4-(4-(4-((1S,4S)-2-oxa-5-azabicyclo[2.2.1]heptan-5-yl)-3-fluorophenyl)quinazolin-6-yl)pyridin-2-amine]
18 | 6.00 to 7.00 | > 7.00 | – | Nc1cc(-c2ccc3ncnc(-c4cnc(N5CCOCC5)c(F)c4)c3c2)ccn1 [Compound 11, 4-(4-(5-fluoro-6-morpholinopyridin-3-yl)quinazolin-6-yl)pyridin-2-amine]
19 | > 7.00 | > 7.00 | – | CN(C)C(=O)N1CCN(c2ccc(-c3ncnc4ccc(-c5ccnc(N)c5)cc34)cc2F)CC1 [Compound 49, 4-(4-(6-(2-aminopyridin-4-yl)quinazolin-4-yl)-2-fluorophenyl)-N,N-dimethylpiperazine-1-carboxamide]
20 | > 7.00 | > 7.00 | – | CC(C)CN1CCN(c2ccc(-c3ncnc4ccc(-c5ccnc(N)c5)cc34)cc2F)CC1 [Compound 48, 4-(4-(3-fluoro-4-(4-isobutylpiperazin-1-yl)phenyl)quinazolin-6-yl)pyridin-2-amine]
21 | 6.00 to 7.00 | > 7.00 | – | COc1ccc(-c2ncnc3ccc(-c4ccnc(N)c4)cc23)cc1C [Compound 21, 4-(4-(4-methoxy-3-methylphenyl)quinazolin-6-yl)pyridin-2-amine]
22 | < 6.00 | > 7.00 | – | Nc1cc(-c2ccc3ncnc(-c4cccc(N5CCOCC5)c4)c3c2)ccn1 [Compound 4, 4-(4-(3-morpholinophenyl)quinazolin-6-yl)pyridin-2-amine]
23 | 6.00 to 7.00 | > 7.00 | – | CC(C)N1CCN(c2ccc(-c3ncnc4ccc(-c5ccnc(N)c5)cc34)cc2F)CC1 [Compound 50, 4-(4-(3-fluoro-4-(4-isopropylpiperazin-1-yl)phenyl)quinazolin-6-yl)pyridin-2-amine]
24 | > 7.00 | > 7.00 | – | CN1CCN(c2ccc(-c3ncnc4ccc(-c5ccnc(N)c5)cc34)cc2F)CC1 [Compound 25, 4-(4-(3-fluoro-4-(4-methylpiperazin-1-yl)phenyl)quinazolin-6-yl)pyridin-2-amine]
25 | 6.00 to 7.00 | > 7.00 | – | CC(C)(C)N1CCN(c2ccc(-c3ncnc4ccc(-c5ccnc(N)c5)cc34)cc2F)CC1 [Compound 45, 4-(4-(4-(4-(tert-butyl)piperazin-1-yl)-3-fluorophenyl)quinazolin-6-yl)pyridin-2-amine]
26 | – | – | > 7.00 | 1-(5-(4-(6-(2-aminopyridin-4-yl)quinazolin-4-yl)-2-fluorophenyl)hexahydropyrrolo[3,4-c]pyrrol-2(1H)-yl)ethan-1-one [Compound 46]
